Measurements as given in the NIST ThermoML archive (doi:10.1021/je0496140).
Numbers after ± are expanded uncertainties.

Assay: xn = mol fraction of the nth substance listed
Details: 101.33 kPa, Liquid

CCCCCl [1-chlorobutane] + CC(C)(C)O
Details	mass density [kg/m3]	viscosity [mPa·s]
298.15 K, x2 = 0.0966	–	0.442 ± 0.006
298.15 K, x2 = 0.2	–	0.476 ± 0.007
298.15 K, x2 = 0.2904	–	0.517 ± 0.007
298.15 K, x2 = 0.3901	–	0.577 ± 0.008
298.15 K, x2 = 0.4897	–	0.662 ± 0.009
298.15 K, x2 = 0.5956	–	0.799 ± 0.01
298.15 K, x2 = 0.6919	–	1 ± 0.013
298.15 K, x2 = 0.8008	–	1.425 ± 0.017
298.15 K, x2 = 0.8889	–	2.112 ± 0.025
303.15 K, x2 = 0.0924	864.09 ± 0.4	–
303.15 K, x2 = 0.0966	–	0.419 ± 0.006
303.15 K, x2 = 0.1915	853.49 ± 0.41	–
303.15 K, x2 = 0.2	–	0.449 ± 0.007
303.15 K, x2 = 0.2758	844.75 ± 0.43	–
303.15 K, x2 = 0.2904	–	0.486 ± 0.007
303.15 K, x2 = 0.38	834.23 ± 0.44	–
303.15 K, x2 = 0.3901	–	0.537 ± 0.007
303.15 K, x2 = 0.481	824.02 ± 0.45	–
303.15 K, x2 = 0.4897	–	0.611 ± 0.008
303.15 K, x2 = 0.5729	814.91 ± 0.46	–
303.15 K, x2 = 0.5956	–	0.727 ± 0.01
303.15 K, x2 = 0.6749	804.89 ± 0.48	–
303.15 K, x2 = 0.6919	–	0.892 ± 0.011
303.15 K, x2 = 0.7778	795.09 ± 0.49	–
303.15 K, x2 = 0.8008	–	1.232 ± 0.015
303.15 K, x2 = 0.8889	–	1.752 ± 0.021
303.15 K, x2 = 0.8938	784.46 ± 0.5	–
308.15 K, x2 = 0.0966	–	0.397 ± 0.006
308.15 K, x2 = 0.0969	857.96 ± 0.41	–
308.15 K, x2 = 0.1912	847.87 ± 0.42	–
308.15 K, x2 = 0.2	–	0.423 ± 0.006
308.15 K, x2 = 0.2786	838.9 ± 0.43	–
308.15 K, x2 = 0.2904	–	0.456 ± 0.007
308.15 K, x2 = 0.3839	828.23 ± 0.45	–
308.15 K, x2 = 0.3901	–	0.502 ± 0.007
308.15 K, x2 = 0.4811	818.5 ± 0.46	–
308.15 K, x2 = 0.4897	–	0.565 ± 0.008
308.15 K, x2 = 0.5844	808.35 ± 0.47	–
308.15 K, x2 = 0.5956	–	0.664 ± 0.009
308.15 K, x2 = 0.6849	798.55 ± 0.48	–
308.15 K, x2 = 0.6919	–	0.801 ± 0.01
308.15 K, x2 = 0.7881	788.78 ± 0.5	–
308.15 K, x2 = 0.8008	–	1.081 ± 0.014
308.15 K, x2 = 0.8889	–	1.474 ± 0.018
308.15 K, x2 = 0.8957	779.05 ± 0.51	–
313.15 K, x2 = 0.093	852.6 ± 0.42	–
313.15 K, x2 = 0.0966	–	0.378 ± 0.006
313.15 K, x2 = 0.1869	842.51 ± 0.43	–
313.15 K, x2 = 0.2	–	0.4 ± 0.006
313.15 K, x2 = 0.2685	834.13 ± 0.44	–
313.15 K, x2 = 0.2904	–	0.428 ± 0.006
313.15 K, x2 = 0.3778	823.11 ± 0.45	–
313.15 K, x2 = 0.3901	–	0.468 ± 0.007
313.15 K, x2 = 0.4841	812.56 ± 0.47	–
313.15 K, x2 = 0.4897	–	0.525 ± 0.007
313.15 K, x2 = 0.5777	803.43 ± 0.48	–
313.15 K, x2 = 0.5956	–	0.608 ± 0.008
313.15 K, x2 = 0.6796	793.58 ± 0.49	–
313.15 K, x2 = 0.6919	–	0.724 ± 0.01
313.15 K, x2 = 0.7766	784.47 ± 0.5	–
313.15 K, x2 = 0.8008	–	0.947 ± 0.012
313.15 K, x2 = 0.8889	–	1.255 ± 0.015
313.15 K, x2 = 0.8972	773.57 ± 0.52	–
318.15 K, x2 = 0.0918	847.04 ± 0.42	–
318.15 K, x2 = 0.0966	–	0.359 ± 0.006
318.15 K, x2 = 0.1839	837.08 ± 0.43	–
318.15 K, x2 = 0.2	–	0.38 ± 0.006
318.15 K, x2 = 0.2674	828.47 ± 0.45	–
318.15 K, x2 = 0.2904	–	0.404 ± 0.006
318.15 K, x2 = 0.3797	817.22 ± 0.46	–
318.15 K, x2 = 0.3901	–	0.439 ± 0.006
318.15 K, x2 = 0.4809	807.29 ± 0.47	–
318.15 K, x2 = 0.4897	–	0.488 ± 0.007
318.15 K, x2 = 0.5799	797.62 ± 0.49	–
318.15 K, x2 = 0.5956	–	0.56 ± 0.008
318.15 K, x2 = 0.678	788.38 ± 0.5	–
318.15 K, x2 = 0.6919	–	0.658 ± 0.009
318.15 K, x2 = 0.7833	778.42 ± 0.51	–
318.15 K, x2 = 0.8008	–	0.841 ± 0.011
318.15 K, x2 = 0.8889	–	1.083 ± 0.014
318.15 K, x2 = 0.8905	768.84 ± 0.52	–
